Measurements taken from article PMC1874649 (Nucleic Acids Research, 2007).

Test system: cyclin B1
Format: cell-based
Conditions: complexed with Pep-3, 2 µM, HeLa cells

## control HypNA-pPNA sequence harbouring two mutations: sequence derived from Cyc-B1a harbouring two mismatches, TGC CAT CAG GCT TAG AGG (antisense TGCCATCAGGCTTAGAGG; HypNA-pPNA backbone (hydroxyproline/phosphono PNA), pattern not given here)
  effect on cyclin B1 protein levels (control): no effect
